The source of these data is patent US9629919B2, “Drug delivery of temozolomide for systemic based treatment of cancer” (CEDARS-SINAI MEDICAL CENTER, priority 2009, dated 2017).

A short description of series [1]: physchem. The class given is physicochemical. Particulars: buffer, pH 7.4. The protocol: The conjugation reaction of PMLA with PEG, TMZH, LLL and LOEt was followed by thin layer chromatography (TLC) on precoated silica gel 60 F254 aluminum sheets (Merck, Darmstadt, Germany) and visualization of spots by UV light and/or by ninhydrin staining. The concentration of free or conjugated TMZH was monitored by reading A328 and using known amounts of TMZ or TMZH standards. Size exclusion chromatography was performed on LACHROM ELITE, an analytical High Performance Liquid Chromatograph (HPLC) system with Diode Array Detector L 2455 (Hitachi, Pleasanton, Calif., USA), and Mw was measured using BioSep-SEC-S 3000 (300×7.80 mm) (Phenomenex, Torrance, Calif., USA) with 50 mM sodium phosphate buffer pH 6.8 and polystyrene sulfonates as molecular weight standards. Thiol residues attached to PMLA were assayed by the method of Ellman. Enzyme-linked immunosorbent assay (ELISA) was used to determine the functional activity of conjugated antibody using a Protein Detector ELISA Kit (KPL, Inc., Gaithersburg, Mass., USA). Human TfR ectodomain used as antigen was obtained from Protein Expression Center, California Institute of Technology, Pasadena, USA.
TMZ is a prodrug and undergoes spontaneous conversion to the active alkylating agent at neutral or alkaline pH. Half-lives were measured at physiological pH 7.4 in PBS and summarized in Table I. The decomposition of free and conjugated TMZH by hydrolytic ring opening (Chart 1) was a first order reaction for free TMZ or TMZH and conjugated TMZH (data not shown). […] Similar data have been reported for TMZ conjugated with small carbon chains (6). No detectable decomposition was observed during 24 h at pH 5.0 at RT.

For series [2], the system named is MDA-MB-231. The experiment in a line: Cell viability (MTS). The class given is cell-based, human. Particulars: MDA-MB-231, 24 h exposure, viability on day 7, untreated = 100%. The method, then: (§1) Primary glioma cell lines U87MG and T98G, and invasive breast carcinoma cell lines MDA-MB-231 and MDA-MB-468 were obtained from American Type Culture Collection (ATCC, Manassas, Va., USA) USA. U87MG and T98G cells were cultured in MEM supplemented with 10% fetal bovine serum, 1% MEM NEAA, 1 mM sodium pyruvate and 2 mM L-glutamine. For MDA-MB-231 and MDA-MB-468, Leibovitz's L-15 medium with 10% fetal bovine serum was used. Cells were seeded at 10^3 per well (0.1 ml) in 96-well flat-bottomed plates and incubated overnight at 37° C. in humid atmosphere with 5% CO2 (MDA-MB-231 and MDA-MB-468 were incubated without CO2). After exposure to synthesized conjugates for 24 h, medium was replaced every 48 h. Cell viability was measured on day 5 for T98G and day 7 for the rest of the cell lines using the CELLTITER 96 Aqueous One Solution Cell Proliferation Assay kit (Cat. No. PR-G3580; Promega, Madison, Wis., USA). Yellow [3-(4,5-dimethylthiazol-2-yl)-5-(3-carboxymethoxyphenyl)-2-(4-sulfophenyl-)-2H-tetrazolium, inner salt] (MTS) is bioreduced by cells into formazan that is soluble in the tissue culture medium. The absorbance reading at 490 nm from the 96-well plates is directly proportional to the number of living cells (32). The viability of the untreated cells was taken as 100%. The results shown are the means±standard deviation of three independent measurements. Data were analyzed by statistical software GRAPHPAD PRISM 3.0.

In series [3] the test system is MDA-MB-468. The experiment in a line: Cell viability (MTS). Type of series: cell-based, human. Particulars: MDA-MB-468, 24 h exposure, viability on day 7, untreated = 100%. The method, then:
as §1

The subject of series [4] is T98G. As to the kind of experiment: Cell viability (MTS). The class given is cell-based, human. Particulars: 24 h exposure, viability on day 5, untreated = 100%. The method, then: as §1
Series [5] concerns U87MG. The experiment in a line: Cell viability (MTS). The class given is cell-based, human. The protocol: as §1

“Also recorded” adds a separate entry of the source.

Regarding `Cn1nnc2c(C(N)=O)ncn2c1=O` [TMZ, temozolomide], the “Half-life of TMZ” value in series [1] is listed as 1.8 h. Besides, the half-life in series [1] was 1.8 ± 0.1 h. Besides, the “effect on cell viability” value in series [2] was “inactive; also recorded: did not change”; in series [3] it was “inactive; also recorded: ineffective at all concentrations below 130 μM; also recorded: did not change”; in series [4], “inactive; also recorded: did not change”; in series [5] (24 h exposure, viability on day 7, untreated = 100%), “stronger effect on U87MG cells than the nanoconjugates; also recorded: responded”. Besides, the “order of increasing potency on cell viability” value in series [5] (FIG. 6a) is listed as “P/PEG(2%)/LLL(40%)/TMZH(17%)/IgG(0.25%)<P/PEG(2%)/LLL(40%)/TMZH(17%)<P/PEG(2%)/LLL(40%)/TMZH(17%)/HuTfR mAb(0.25%)<TMZ”.
Consider `Cn1nnc2c(C(=O)NN)ncn2c1=O` [TMZH, temozolomide hydrazide], for which the half-life in series [1] was 1.98 ± 0.1 h.

What is called half-life is the time in which the quantity being followed falls by half. A high value points to slow decline.
